From US20240299597A1, “3-Iodopropyl-1,2,3-Triazol-1-yl, 3-Bromopropyl-1,2,3-Triazol-1-yl, and Derivatives for Uses in Labeling” (Emory University, priority 2021, published 2024)

Assay: Storage stability / shelf life of F-18 labeling precursors
Type: physicochemical
Settings: for stability to storage compared to the tosylate and 4-bromo-tosylate derivatives: comparison in the FIG. 1C legend; for stability on storage: stored below 0 C

With CC(=O)OCC1OC(OC2C(COC(C)=O)OC(OC3C(COC(C)=O)OC(OCCCn4cc(CCCBr)nn4)C(OC(C)=O)C3OC(C)=O)C(OC(C)=O)C2OC(C)=O)C(OC(C)=O)C(OC(C)=O)C1OC(C)=O (stereo not shown) [3-bromopropyl-precursor, 2-(acetoxymethyl)-6-((4,5-diacetoxy-2-(acetoxymethyl)-6-((4,5-diacetoxy-2-(acetoxymethyl)-6-(3-(4-(3-bromopropyl)-1H-1,2,3-triazol-1-yl)propoxy)tetrahydro-2H-pyran-3-yl)oxy)tetrahydro-2H-pyran-3-yl)oxy)tetrahydro-2H-pyran-3,4,5-triyl triacetate] the “stability to storage compared to the tosylate and 4-bromo-tosylate derivatives” value was “more statable to storage” and the stability on storage was “stable”.
With CC(=O)OCC1OC(OC2C(COC(C)=O)OC(OC3C(COC(C)=O)OC(OCCCn4cc(CCCI)nn4)C(OC(C)=O)C3OC(C)=O)C(OC(C)=O)C2OC(C)=O)C(OC(C)=O)C(OC(C)=O)C1OC(C)=O (stereo not shown) [3-iodopropyl-precursor, 2-(acetoxymethyl)-6-((4,5-diacetoxy-2-(acetoxymethyl)-6-((4,5-diacetoxy-2-(acetoxymethyl)-6-(3-(4-(3-iodopropyl)-1H-1,2,3-triazol-1-yl)propoxy)tetrahydro-2H-pyran-3-yl)oxy)tetrahydro-2H-pyran-3-yl)oxy)tetrahydro-2H-pyran-3,4,5-triyl triacetate] the “stability to storage compared to the tosylate and 4-bromo-tosylate derivatives” value was “more statable to storage” and the stability on storage was “stable”.
